Data as given in the NIST ThermoML archive (doi:10.1021/je900570e).

Experiment: xn = mol fraction of the nth substance listed
Settings: Liquid; for viscosity / speed of sound: 101 kPa; for viscosity: Capillary tube (Ostwald / Ubbelohde) method; for speed of sound: Frequency=2 MHz, Pulse-echo method; for mass density: 101.33 kPa, Vibrating tube method

N#CCc1ccccc1 [benzeneacetonitrile] + ClC(Cl)C(Cl)Cl
Settings | mass density, 303.15 K [kg/m3] | mass density, 308.15 K [kg/m3] | mass density, 313.15 K [kg/m3] | speed of sound, 303.15 K [m/s] | speed of sound, 308.15 K [m/s] | speed of sound, 313.15 K [m/s] | viscosity, 303.15 K [mPa·s] | viscosity, 308.15 K [mPa·s] | viscosity, 313.15 K [mPa·s]
x1 = 0.0221 | 1566.5 | 1558.5 | 1551.7 | 1142 | 1125 | 1107.4 | 1.489 | 1.376 | 1.277
x1 = 0.1374 | 1497.2 | 1490.1 | 1483.5 | 1179.7 | 1166.3 | 1154.6 | 1.661 | 1.528 | 1.413
x1 = 0.2564 | 1426.9 | 1420 | 1413.8 | 1220.9 | 1209.3 | 1201.6 | 1.838 | 1.678 | 1.544
x1 = 0.3743 | 1358.8 | 1351.7 | 1345.9 | 1263.5 | 1251.5 | 1245.6 | 1.954 | 1.775 | 1.63
x1 = 0.4799 | 1297.2 | 1291.5 | 1285.9 | 1303.1 | 1289.9 | 1283.9 | 2.011 | 1.837 | 1.674
x1 = 0.5852 | 1236.4 | 1231.7 | 1226.2 | 1343.4 | 1329.5 | 1323.9 | 2.017 | 1.832 | 1.682
x1 = 0.7131 | 1164.2 | 1160.2 | 1154.9 | 1393.9 | 1381 | 1373.2 | 1.966 | 1.796 | 1.645
x1 = 0.8414 | 1093.9 | 1089.9 | 1085 | 1446.4 | 1436.5 | 1426.2 | 1.894 | 1.725 | 1.597
x1 = 0.9748 | 1022.5 | 1018.2 | 1013.5 | 1504.3 | 1497.2 | 1487.4 | 1.772 | 1.617 | 1.503
x1 = 1 | 1008.8 | 1004.1 | 999.5 | 1519.2 | 1512.9 | 1503.4 | 1.761 | 1.602 | 1.489

N#CCc1ccccc1 [benzeneacetonitrile] + ClC(Cl)=C(Cl)Cl
Settings | mass density, 303.15 K [kg/m3] | mass density, 308.15 K [kg/m3] | mass density, 313.15 K [kg/m3] | speed of sound, 303.15 K [m/s] | speed of sound, 308.15 K [m/s] | speed of sound, 313.15 K [m/s] | viscosity, 303.15 K [mPa·s] | viscosity, 308.15 K [mPa·s] | viscosity, 313.15 K [mPa·s]
x1 = 0.0231 | 1591.9 | 1583 | 1575.7 | 1037.5 | 1024.4 | 1010.5 | 0.8124 | 0.7752 | 0.746
x1 = 0.1322 | 1520.1 | 1512.1 | 1505.3 | 1082.9 | 1070.9 | 1060.1 | 0.884 | 0.8382 | 0.8001
x1 = 0.249 | 1445.2 | 1438 | 1431.6 | 1133.9 | 1123.3 | 1113.4 | 0.9577 | 0.9171 | 0.868
x1 = 0.37 | 1369.8 | 1363.1 | 1357.1 | 1188.9 | 1178.8 | 1168.9 | 1.06 | 0.9982 | 0.9342
x1 = 0.4713 | 1308.3 | 1302 | 1296.2 | 1236.8 | 1226.7 | 1216.8 | 1.159 | 1.077 | 1.003
x1 = 0.5767 | 1245.7 | 1239.8 | 1234.3 | 1288.5 | 1278.5 | 1268.9 | 1.269 | 1.172 | 1.096
x1 = 0.7051 | 1171.4 | 1166.1 | 1160.8 | 1355 | 1345 | 1335.7 | 1.413 | 1.294 | 1.207
x1 = 0.8386 | 1096.5 | 1091.6 | 1086.6 | 1428 | 1419.2 | 1409.3 | 1.571 | 1.43 | 1.329
x1 = 0.972 | 1023.9 | 1019.2 | 1014.5 | 1504.1 | 1497.9 | 1486.1 | 1.726 | 1.57 | 1.458
x1 = 1 | 1008.8 | 1004.1 | 999.5 | 1519.2 | 1512.9 | 1503.4 | 1.761 | 1.602 | 1.489

N#CCc1ccccc1 [benzeneacetonitrile] + ClC=C(Cl)Cl
Settings | mass density, 303.15 K [kg/m3] | mass density, 308.15 K [kg/m3] | mass density, 313.15 K [kg/m3] | speed of sound, 303.15 K [m/s] | speed of sound, 308.15 K [m/s] | speed of sound, 313.15 K [m/s] | viscosity, 303.15 K [mPa·s] | viscosity, 308.15 K [mPa·s] | viscosity, 313.15 K [mPa·s]
x1 = 0.0195 | 1437 | 1428.5 | 1420 | 1024.6 | 1004.9 | 992.5 | 0.5201 | 0.486 | 0.4908
x1 = 0.119 | 1383.8 | 1377.2 | 1369.5 | 1073.5 | 1057.5 | 1045.8 | 0.5905 | 0.553 | 0.5292
x1 = 0.2263 | 1329.5 | 1323.9 | 1316.9 | 1128.2 | 1114.1 | 1102.9 | 0.6901 | 0.6417 | 0.6092
x1 = 0.3478 | 1271.9 | 1266.3 | 1260.1 | 1191 | 1179.2 | 1169.9 | 0.82 | 0.7558 | 0.715
x1 = 0.4396 | 1230.2 | 1225 | 1219.2 | 1238.9 | 1228.9 | 1221.9 | 0.9316 | 0.8529 | 0.7976
x1 = 0.5443 | 1184.5 | 1179.6 | 1174.2 | 1293.3 | 1284.6 | 1279.3 | 1.066 | 0.9721 | 0.9137
x1 = 0.6782 | 1128.8 | 1124.7 | 1119.5 | 1364.1 | 1356.5 | 1351 | 1.248 | 1.147 | 1.075
x1 = 0.819 | 1074.1 | 1070.3 | 1064.9 | 1435.8 | 1428.4 | 1425 | 1.456 | 1.339 | 1.248
x1 = 0.9692 | 1019.7 | 1015.3 | 1010.2 | 1504.1 | 1502.7 | 1499.2 | 1.698 | 1.546 | 1.439
x1 = 1 | 1008.8 | 1004.1 | 999.5 | 1519.2 | 1512.9 | 1503.4 | 1.761 | 1.602 | 1.489

N#CCc1ccccc1 [benzeneacetonitrile] + ClCCCl
Settings | mass density, 303.15 K [kg/m3] | mass density, 308.15 K [kg/m3] | mass density, 313.15 K [kg/m3] | speed of sound, 303.15 K [m/s] | speed of sound, 308.15 K [m/s] | speed of sound, 313.15 K [m/s] | viscosity, 303.15 K [mPa·s] | viscosity, 308.15 K [mPa·s] | viscosity, 313.15 K [mPa·s]
x1 = 0.0165 | 1233.5 | 1225.3 | 1218.7 | 1182.2 | 1171.9 | 1161 | 0.7352 | 0.6821 | 0.6456
x1 = 0.1059 | 1205.5 | 1198.9 | 1191.5 | 1221.2 | 1211.5 | 1200.5 | 0.8165 | 0.7512 | 0.708
x1 = 0.2041 | 1177.1 | 1171 | 1163.5 | 1262.4 | 1252.3 | 1243.7 | 0.9029 | 0.8313 | 0.7877
x1 = 0.3088 | 1149.2 | 1143.5 | 1136.1 | 1304.2 | 1293.6 | 1285.3 | 1.003 | 0.9258 | 0.8746
x1 = 0.4073 | 1124.8 | 1119.4 | 1111.8 | 1339.5 | 1330.8 | 1320.8 | 1.103 | 1.017 | 0.9576
x1 = 0.5122 | 1100.7 | 1095.6 | 1087.6 | 1374.8 | 1367.5 | 1355.9 | 1.213 | 1.117 | 1.048
x1 = 0.648 | 1072 | 1067.2 | 1058.8 | 1418.6 | 1411.8 | 1399.9 | 1.365 | 1.248 | 1.165
x1 = 0.8003 | 1042.8 | 1038.2 | 1029.5 | 1465.2 | 1458.9 | 1447.6 | 1.536 | 1.398 | 1.299
x1 = 0.9705 | 1013.6 | 1008.8 | 999.9 | 1512.6 | 1505.4 | 1499.1 | 1.725 | 1.568 | 1.456
x1 = 1 | 1008.8 | 1004.1 | 999.5 | 1519.2 | 1512.9 | 1503.4 | 1.761 | 1.602 | 1.489

ClCC(Cl)Cl [1,1,2-trichloroethane] + N#CCc1ccccc1
Settings | mass density, 303.15 K [kg/m3] | mass density, 308.15 K [kg/m3] | mass density, 313.15 K [kg/m3] | speed of sound, 303.15 K [m/s] | speed of sound, 308.15 K [m/s] | speed of sound, 313.15 K [m/s] | viscosity, 303.15 K [mPa·s] | viscosity, 308.15 K [mPa·s] | viscosity, 313.15 K [mPa·s]
x2 = 0 | 1425 | 1416.1 | 1409.6 | 1129.2 | 1115.9 | 1096.1 | 1.019 | 0.9483 | 0.8888
x2 = 0.0185 | 1415.6 | 1407.2 | 1400.5 | 1137 | 1125 | 1105.9 | 1.046 | 0.9728 | 0.9045
x2 = 0.1212 | 1364.9 | 1358.6 | 1351.2 | 1176.7 | 1168.2 | 1150.9 | 1.158 | 1.064 | 0.9825
x2 = 0.2319 | 1312.6 | 1307.3 | 1300.6 | 1219.7 | 1214.2 | 1199.9 | 1.264 | 1.163 | 1.074
x2 = 0.3463 | 1261.1 | 1256.2 | 1250.2 | 1263.4 | 1261.9 | 1248.1 | 1.365 | 1.259 | 1.169
x2 = 0.445 | 1218.6 | 1214 | 1208.4 | 1301 | 1301.5 | 1288.9 | 1.454 | 1.336 | 1.242
x2 = 0.5545 | 1173.4 | 1168.9 | 1163.6 | 1342.8 | 1343.3 | 1332.8 | 1.545 | 1.411 | 1.307
x2 = 0.6861 | 1121.7 | 1117.3 | 1112.1 | 1393.4 | 1392.9 | 1383.2 | 1.631 | 1.491 | 1.381
x2 = 0.8245 | 1070.3 | 1065.7 | 1060.7 | 1446.6 | 1445.1 | 1431.8 | 1.706 | 1.561 | 1.436
x2 = 0.972 | 1018.4 | 1013.7 | 1009 | 1505.3 | 1498.7 | 1488.9 | 1.758 | 1.595 | 1.477
